In patent US6525001B1, “Substituted pyrimidine and pyridine herbicides” (Mid-American Commercialization Corporation, priority 1997, dated 2003):

Assays:
Format in all cases: in vivo
[1] = test system: bamyardgrass (Echinochloa crus-galli); assay: Test B flood test; parameters: key: 0 is no effect; 10 is complete control
Outline: (§1)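 Each value is a visual injury score relative to controls, with 10 meaning complete control and 0 no effect. Evaluation took place twelve to sixteen days after the 2-leaf-stage plants were treated and kept in the greenhouse.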

rice (Oryza sativa) = assay: Test B flood test; parameters: key: 0 is no effect; 10 is complete control
Outline: as §1

[2] = test system: smallflower flatsedge (Cyperus difformis); assay: Test B flood test; parameters: key: 0 is no effect; 10 is complete control
Outline: as §1

[3] = test system: duck salad (Heteranthera limosa); assay: Test B flood test; parameters: key: 0 is no effect; 10 is complete control
Outline: as §1

[4] = test system: morningglory (Ipomoea spp.); assay: Test A pre-/postemergence; settings: 0 to 10 scale
Procedure: Seeds of barnyardgrass (Echinochloa crus-galli), crabgrass (Digitaria spp.), morningglory (Ipomoea spp.), and velvetleaf (Abutilon theophrasti) were planted into a sandy loam soil and treated preemergence by soil drench with test chemicals formulated in a non-phytotoxic solvent mixture which includes a surfactant. At the same time, these crop and weed species were also treated postemergence sprayed to runoff, with test chemicals formulated in the same manner. Plants ranged in height from two to eighteen cm and were in the one to two leaf stage for the postemergence treatment. Treated plants and untreated controls were maintained in a greenhouse for approximately eleven days, after which all treated plants were compared to untreated controls and visually evaluated for injury. Plant response ratings, summarized in Table A, are based on a 0 to 10 scale where 0 is no effect and 10 is complete control. A dash (−) response means no test results.

[5] = test system: purple nutsedge (Cyperus rotundus); assay: Test B pre-/postemergence; parameters: key: 0 is no effect; 10 is complete control
Outline: (§2)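 Response scores run from 0, meaning no effect, to 10, meaning complete control, assigned by eye relative to controls twelve to sixteen days after spraying. Treatment was both preemergence on planted seed and postemergence on plants at the 1- to 4-leaf stage.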

wild oat (Avena fatua) = assay: Test B pre-/postemergence; parameters: key: 0 is no effect; 10 is complete control
Outline: as §2

[6] = Rate 62 g/ha, Postemergence (flood test)
[7] = Rate 125 g/ha, Postemergence, flood test
[8] = Rate 250 g/ha, Postemergence (flood test species)
[9] = Rate 500 g/ha, Postemergence (flood test species)

Cc1cnc(-c2ccc(Cl)cc2)nc1Cn1ccc(C(F)(F)F)n1 [Compound 6]
Plant response rating, Barnyardgrass [1, 6]: 0
Plant response rating, Barnyardgrass [1, 7]: 1
Plant response rating, Barnyardgrass [1, 8]: 2
Plant response rating, Barnyardgrass [1, 9]: 3
Plant response rating, Rice (rice (Oryza sativa); [6]): 1
Plant response rating, Rice (rice (Oryza sativa); [7]): 2
Plant response rating, Rice (rice (Oryza sativa); [8]): 2
Plant response rating, Rice (rice (Oryza sativa); [9]): 3
Plant response rating, S. Flatsedge [2, 6]: 3
Plant response rating, S. Flatsedge [2, 7]: 5
Plant response rating, S. Flatsedge [2, 8]: 7
Plant response rating, S. Flatsedge [2, 9]: 7
Plant response rating, Ducksalad [3, 6]: 0
Plant response rating, Ducksalad [3, 7]: 0
Plant response rating, Ducksalad [3, 8]: 0
Plant response rating, Ducksalad [3, 9]: 6
Plant response rating, Morningglory ([4]; PRE SOIL DRENCH, Rate 2000 g/ha): 5
Plant response rating, Morningglory ([4]; postemergence SPRAYED TO RUNOFF, Rate 1000 g/ha): 6
Plant response rating, Nutsedge ([5]; Rate 62 g/ha, Postemergence): 2
Nutsedge plant response rating ([5]; Rate 62 g/ha, Preemergence): 0
Nutsedge plant response rating ([5]; Rate 125 g/ha, Preemergence): 0
Plant response rating, Nutsedge ([5]; Rate 250 g/ha, Postemergence): 2
Plant response rating, Nutsedge ([5]; Rate 250 g/ha, Preemergence): 0
Plant response rating, Nutsedge ([5]; Rate 500 g/ha, Postemergence): 3
Plant response rating, Nutsedge ([5]; Rate 500 g/ha, Preemergence): 0
Plant response rating, Wild oats (wild oat (Avena fatua); Rate 62 g/ha, Postemergence): 0
Wild oats plant response rating (wild oat (Avena fatua); Rate 62 g/ha, Preemergence): 0
Plant response rating, Wild oats (wild oat (Avena fatua); Rate 125 g/ha, Postemergence): 3
Wild oats plant response rating (wild oat (Avena fatua); Rate 125 g/ha, Preemergence): 0
Plant response rating, Wild oats (wild oat (Avena fatua); Rate 250 g/ha, Postemergence): 3
Plant response rating, Wild oats (wild oat (Avena fatua); Rate 250 g/ha, Preemergence): 2
Plant response rating, Wild oats (wild oat (Avena fatua); Rate 500 g/ha, Postemergence): 3
Plant response rating, Wild oats (wild oat (Avena fatua); Rate 500 g/ha, Preemergence): 3
